Assay results reported in US20070254907A1, “COMPOSITIONS AND METHODS FOR CONTROLLING INFESTATION” (HATCHTECH PTY LTD, priority 2003, published 2007).
“Also recorded” adds a separate entry of the source. Read-outs that look alike come from different tables or passages of the source.

Legend:
lice eggs = assay: whole plant or invertebrate; format: in vivo; conditions: for H (number of eggs successfully hatched) / Ph (number of eggs partly hatched): per replicate, concentration not given
Plutella xylostella eggs [1] = assay: whole plant or invertebrate; format: in vivo
Procedure: The ovicidal efficacy of 2-acetyl-1-tetralone was also tested against Plutella eggs.

Plutella xylostella eggs [2] = assay: Reversal of inhibition of Plutella egg hatching by added FeSO4; format: in vivo
Procedure: (§1) Within 24 hours of collection the following experimental design was chosen. Batches of eggs were exposed to 10 mM 6,6′-dimethyl-2,2′-dipyridyl for 2 seconds while additional batches of eggs were exposed to the solvent only (Methanol) for 2 seconds. All batches of eggs were allowed to air dry for 20 minutes at room temperature. The eggs were then given a 2 second exposure to FeSO4 at either 10, 5 or 1 mM, air dried and put in the incubator at 24° C. and allowed to hatch over the next 6 days. In addition, a positive control of 10 mM 6,6′-dimethyl-2,2′-dipyridyl was set up in which eggs were exposed to this compound for 2 seconds, air dried and placed in the incubator.
as §1, with “10 mM 5,5′-dimethyl-2,2′-dipyridyl for 2” for “10 mM 6,6′-dimethyl-2,2′-dipyridyl for 2”, “FeSO4 at 10, 5” for “FeSO4 at either 10, 5”, “put in an incubator at” for “put in the incubator at”, “of 10 mM, 5,5′-dimethyl-2,2′-dipyridyl was set” for “of 10 mM 6,6′-dimethyl-2,2′-dipyridyl was set”

B. ovis eggs = assay: Egg hatching in Bovicola ovis; format: in vivo; conditions: 10 mM; for Number hatched in different replicates: 10 eggs per replicate; for % Inhibition: in comparison to the controls; for Number unhatched: per replicate
Procedure: B. ovis eggs were collected from the wool of sheep that were infested with this parasite. The eggs were collected using forceps and with the aid of a dissecting microscope and placed in 24 well tissue culture plates in duplicate lots of 10 eggs per replicate. The eggs were then exposed to either methanol alone (control) or the test compounds for either 10 minutes or 1 minute before being removed from the wells and placed into individual glass vials containing a diet at the base of the tube. The tubes were placed in plastic containers containing a salt solution (to keep humidity constant at 68%) and the containers maintained at a temperature 32° C. The eggs were monitored for hatching over the following 12 days and % hatch inhibition determined in comparison to the controls.

[3] = tested on: Lice (L) and Plutella (P) eggs; conditions: Lice (L) and Plutella (P)
[4] = tested on: Helicoverpa armigera eggs; assay: Egg hatching of Helicoverpa armigera
Procedure: A range of concentrations were made up in water and the eggs placed in the solutions for approximately 2-10 seconds. The eggs which had been laid on cloth were then blotted dry and placed in an incubator at 26° C. for 3-4 days until hatch. Hatch rates were then assessed compared to a water only treated control (FIG. 5).
The compound was dissolved in 100% diethoxyglycol and diluted to a final concentration of 1% in water.
Several hundred Helicoverpa armigera eggs (Tatura×Toowoomba strains) were collected, that had been laid on fine mesh cloth over a 24 hour period.
Batches of Helicoverpa eggs were exposed to a specific inhibitor solution for between 2-10 seconds the excess solution drained by blotting with dry tissue paper. The egg masses were then placed in a humid box at 25 degrees until egg hatch. Control eggs were exposed to absolute methanol as described above. At day 6 post laying the eggs were assessed from the different treatments and the percentage of egg hatch determined relative to the control as shown in Table 12.
Batches of Helicoverpa eggs were then exposed to a specific inhibitor solution for between 2-10 seconds the excess solution drained by blotting with dry tissue paper. The egg masses were then placed in a humid box at 25° C. until egg hatch. Control eggs were exposed to absolute methanol as described above. At day 6 post laying the eggs were assessed from the different treatments and the percentage of egg hatch determined relative to the control as shown in Table 13.

[5] = 10 and 1 mM, listed as 6,6′dimethyl-2,2′dipyridyl
[6] = Table 9, 0.001 mM, dipped 2-10 s, day 6 post laying
[7] = Table 9, 0.01 mM, dipped 2-10 s, day 6 post laying
[8] = Table 9, 0.1 mM, dipped 2-10 s, day 6 post laying
[9] = Table 9, 1 mM, dipped 2-10 s, day 6 post laying
[10] = Table 9, 10 mM, dipped 2-10 s, day 6 post laying
[11] = Table 10, eggs laid on cloth, 0.01 mM
[12] = Table 10, eggs laid on cloth, 0.1 mM
[13] = Table 10, eggs laid on cloth, 1 mM
[14] = Table 10, eggs laid on cloth, 10 mM
[15] = Table 11, eggs laid on parafilm, 0.01 mM
[16] = Table 11, eggs laid on parafilm, 0.1 mM
[17] = Table 11, eggs laid on parafilm, 1 mM
[18] = Table 11, eggs laid on parafilm, 10 mM
[19] = 10 mM chelator followed by 2 second exposure to 1 mM FeSO4
[20] = 10 mM chelator followed by 2 second exposure to 5 mM FeSO4
[21] = 10 mM chelator followed by 2 second exposure to 10 mM FeSO4
[22] = 10 mM chelator followed by 2 second exposure to MEOH
[23] = 10 mM chelator, 2 s, (+ve) control without second exposure

## Cc1cccc(-c2cccc(C)n2)n1 [6,6′-dimethyl-2,2′-dipyridyl]
Lice eggs; all time points examined (24-120 hr post egg laying)
  lice egg hatching: completely inhibited
Lice eggs; treated 24 hr post egg laying
  H (number of eggs successfully hatched): 0
  Ph (number of eggs partly hatched): 0
Lice eggs; treated 48 hr post egg laying
  H (number of eggs successfully hatched): 0
  Ph (number of eggs partly hatched): 0
Lice eggs; treated 72 hr post egg laying
  H (number of eggs successfully hatched): 0
  Ph (number of eggs partly hatched): 0
Lice eggs; treated 96 hr post egg laying
  H (number of eggs successfully hatched): 0
  Ph (number of eggs partly hatched): 0
Lice eggs; treated 120 hr post egg laying
  H (number of eggs successfully hatched): 0
  Ph (number of eggs partly hatched): 0
Plutella xylostella eggs [1]; 0.1 and 0.01 mM
  effect on egg hatching of Plutella xylostella (words): no observable effects on egg hatching
Plutella xylostella eggs [1]; 10 and 1 mM, listed as 6,6′-dimethyl-2,2′dipyridyl
  effect on egg hatching of Plutella xylostella (words): effective at inhibiting egg hatching
Plutella xylostella eggs [1]; [5]
  effect on egg hatching of Plutella xylostella (words): strong ovicidal effects
Plutella xylostella eggs [1]; Plutella (P), 1 mM
  Ovicidal activity %: 100.00%
Plutella xylostella eggs [1]; Plutella (P), listed as of 1 mM
  Activity class 0 = inactive 1 = low 2 = med 3 = high: 2 (a pLD50 value between 3 and 4 is considered moderately active (Class 2))
Plutella xylostella eggs [1]; [6]
  Number hatched: 11
  Number unhatched: 6
Plutella xylostella eggs [1]; Table 9, 0.001 mM, relative to control (100% MeOH)
  % Inhibition: 0%
Plutella xylostella eggs [1]; [7]
  Number hatched: 13
  Number unhatched: 7
Plutella xylostella eggs [1]; Table 9, 0.01 mM, relative to control (100% MeOH)
  % Inhibition: 0%
Plutella xylostella eggs [1]; [8]
  Number hatched: 23
  Number unhatched: 29
Plutella xylostella eggs [1]; Table 9, 0.1 mM, relative to control (100% MeOH)
  % Inhibition: 0%
Plutella xylostella eggs [1]; [9]
  Number hatched: 0
  Number unhatched: 26
Plutella xylostella eggs [1]; Table 9, 1 mM, relative to control (100% MeOH)
  % Inhibition: 100%
Plutella xylostella eggs [1]; [10]
  Number hatched: 0
  Number unhatched: 79
Plutella xylostella eggs [1]; Table 9, 10 mM, relative to control (100% MeOH)
  % Inhibition: 100%
Plutella xylostella eggs [1]; [11]
  Number hatched: 23
  Number unhatched: 4
Plutella xylostella eggs [1]; Table 10, eggs laid on cloth, 0.01 mM, relative to controls
  % Inhibition: 12%
Plutella xylostella eggs [1]; [12]
  Number hatched: 49
  Number unhatched: 0
Plutella xylostella eggs [1]; Table 10, eggs laid on cloth, 0.1 mM, relative to controls
  % Inhibition: 0%
Plutella xylostella eggs [1]; [13]
  Number hatched: 0
  Number unhatched: 23
Plutella xylostella eggs [1]; Table 10, eggs laid on cloth, 1 mM, relative to controls
  % Inhibition: 100%
Plutella xylostella eggs [1]; [14]
  Number hatched: 0
  Number unhatched: 53
Plutella xylostella eggs [1]; Table 10, eggs laid on cloth, 10 mM, relative to controls
  % Inhibition: 100%
Plutella xylostella eggs [1]; [15]
  Number hatched: 92
  Number unhatched: 1
Plutella xylostella eggs [1]; Table 11, eggs laid on parafilm, 0.01 mM, relative to controls
  % Inhibition: 0%
Plutella xylostella eggs [1]; [16]
  Number hatched: 65
  Number unhatched: 11
Plutella xylostella eggs [1]; Table 11, eggs laid on parafilm, 0.1 mM, relative to controls
  % Inhibition: 7%
Plutella xylostella eggs [1]; [17]
  Number hatched: 0
  Number unhatched: 63
Plutella xylostella eggs [1]; Table 11, eggs laid on parafilm, 1 mM, relative to controls
  % Inhibition: 100%
Plutella xylostella eggs [1]; [18]
  Number hatched: 0
  Number unhatched: 106
Plutella xylostella eggs [1]; Table 11, eggs laid on parafilm, 10 mM, relative to controls
  % Inhibition: 100%
Plutella xylostella eggs [2]; [19]
  Number hatched: 33
  Number unhatched: 1
Plutella xylostella eggs [2]; 10 mM chelator followed by 2 second exposure to 1 mM FeSO4, relative to FeSO4 controls
  % Inhibition: 3%
Plutella xylostella eggs [2]; [20]
  Number hatched: 25
  Number unhatched: 0
Plutella xylostella eggs [2]; 10 mM chelator followed by 2 second exposure to 5 mM FeSO4, relative to FeSO4 controls
  % Inhibition: 0%
Plutella xylostella eggs [2]; [21]
  Number hatched: 12
  Number unhatched: 19
Plutella xylostella eggs [2]; 10 mM chelator followed by 2 second exposure to 10 mM FeSO4, relative to FeSO4 controls
  % Inhibition: 38%
Plutella xylostella eggs [2]; [22]
  % Inhibition: 90%
  Number hatched: 3
  Number unhatched: 28
Plutella xylostella eggs [2]; [23]
  % Inhibition: 100%
  Number hatched: 0
  Number unhatched: 44
Plutella xylostella eggs [2]; 10 mM chelator, then FeSO4 10, 5 or 1 mM
  effect of added Fe in FeSO4 on the chelator's inhibition of egg hatching: able to reverse the effects
Plutella xylostella eggs [2]; 10 mM chelator, then MeOH
  inhibition of egg hatching after MeOH alone post exposure: significant degree of inhibition of egg hatching
B. ovis eggs; 10 or 1 minute exposure
  egg hatching in the louse: completely inhibited
B. ovis eggs; 1 minute exposure
  Number hatched in different replicates: Rep 1. 0; also recorded: Rep 2. 0
  % Inhibition: 100%
  Number unhatched: 10
B. ovis eggs; 10 minute exposure
  Number hatched in different replicates: Rep 1. 0; also recorded: Rep 2. 0
  % Inhibition: 100%
  Number unhatched: 10
[3]; 0.1 mM
  Ovicidal activity %: 0.00%
[3]; 10 mM
  Ovicidal activity %: 100.00%
[3]; listed as of 0.1 mM
  Activity class 0 = inactive 1 = low 2 = med 3 = high: 2 (a pLD50 value between 3 and 4 is considered moderately active (Class 2))
[3]; listed as of 10 mM
  Activity class 0 = inactive 1 = low 2 = med 3 = high: 2 (a pLD50 value between 3 and 4 is considered moderately active (Class 2))
[4]; 0.1 mM
  effect on egg hatching of Helicoverpa armigera (words): no inhibition of egg hatching was observed
[4]; 10 and 1 mM
  effect on egg hatching of Helicoverpa armigera (words): significantly inhibit the egg hatching
[4]; [5]
  effect on egg hatching of Helicoverpa armigera (words): significantly inhibit egg hatching
[4]; Table 12, 0.001 mM, relative to control (100% MeOH)
  % Inhibition: 0%
[4]; Table 12, 0.01 mM, relative to control (100% MeOH)
  % Inhibition: 0%
[4]; Table 12, 0.1 mM, relative to control (100% MeOH)
  % Inhibition: 0%
[4]; Table 12, 1 mM
  Number hatched: 4
  Number unhatched: 140
[4]; Table 12, 1 mM, relative to control (100% MeOH)
  % Inhibition: 97%
[4]; Table 12, 10 mM
  Number hatched: 7
  Number unhatched: 98
[4]; Table 12, 10 mM, relative to control (100% MeOH)
  % Inhibition: 94%
[4]; Table 13, 0.1 mM
  Number hatched: 70
  Number unhatched: 0
[4]; Table 13, 0.1 mM, relative to the control (100% MeOH)
  % Inhibition: 0%
[4]; Table 13, 1 mM
  Number hatched: 2
  Number unhatched: 61
[4]; Table 13, 1 mM, relative to the control (100% MeOH)
  % Inhibition: 97%
[4]; Table 13, 10 mM
  Number hatched: 3
  Number unhatched: 48
[4]; Table 13, 10 mM, relative to the control (100% MeOH)
  % Inhibition: 94%
[4]; concentrations below 1 mM
  effect on egg hatching of Helicoverpa armigera (words): No inhibition was recorded
